Laboratory results: publication PMC8355706, “CK-3, A Novel Methsulfonyl Pyridine Derivative, Suppresses Hepatocellular Carcinoma Proliferation and Invasion by Blocking the PI3K/AKT/mTOR and MAPK/ERK Pathways” (Frontiers in Oncology, 2021)

How the values were obtained:
Type in all cases: biochemical
PI3Kγ = molecular target: T1, PI3Kγ (Homo sapiens, UniProt P48736); experiment: PI3K-Glo ADP detection kinase assay
T1 construct: gene PIK3CG
Source text: PI3K-Glo ADP detection kinase assay on PI3Kγ

PI3Kδ = molecular target: T2, PI3Kδ (Homo sapiens, UniProt O00329); experiment: PI3K-Glo ADP detection kinase assay
T2 construct: gene PIK3CD; with Phosphatidylinositol 3-kinase regulatory subunit alpha
T2 sequence (O00329 whole entry): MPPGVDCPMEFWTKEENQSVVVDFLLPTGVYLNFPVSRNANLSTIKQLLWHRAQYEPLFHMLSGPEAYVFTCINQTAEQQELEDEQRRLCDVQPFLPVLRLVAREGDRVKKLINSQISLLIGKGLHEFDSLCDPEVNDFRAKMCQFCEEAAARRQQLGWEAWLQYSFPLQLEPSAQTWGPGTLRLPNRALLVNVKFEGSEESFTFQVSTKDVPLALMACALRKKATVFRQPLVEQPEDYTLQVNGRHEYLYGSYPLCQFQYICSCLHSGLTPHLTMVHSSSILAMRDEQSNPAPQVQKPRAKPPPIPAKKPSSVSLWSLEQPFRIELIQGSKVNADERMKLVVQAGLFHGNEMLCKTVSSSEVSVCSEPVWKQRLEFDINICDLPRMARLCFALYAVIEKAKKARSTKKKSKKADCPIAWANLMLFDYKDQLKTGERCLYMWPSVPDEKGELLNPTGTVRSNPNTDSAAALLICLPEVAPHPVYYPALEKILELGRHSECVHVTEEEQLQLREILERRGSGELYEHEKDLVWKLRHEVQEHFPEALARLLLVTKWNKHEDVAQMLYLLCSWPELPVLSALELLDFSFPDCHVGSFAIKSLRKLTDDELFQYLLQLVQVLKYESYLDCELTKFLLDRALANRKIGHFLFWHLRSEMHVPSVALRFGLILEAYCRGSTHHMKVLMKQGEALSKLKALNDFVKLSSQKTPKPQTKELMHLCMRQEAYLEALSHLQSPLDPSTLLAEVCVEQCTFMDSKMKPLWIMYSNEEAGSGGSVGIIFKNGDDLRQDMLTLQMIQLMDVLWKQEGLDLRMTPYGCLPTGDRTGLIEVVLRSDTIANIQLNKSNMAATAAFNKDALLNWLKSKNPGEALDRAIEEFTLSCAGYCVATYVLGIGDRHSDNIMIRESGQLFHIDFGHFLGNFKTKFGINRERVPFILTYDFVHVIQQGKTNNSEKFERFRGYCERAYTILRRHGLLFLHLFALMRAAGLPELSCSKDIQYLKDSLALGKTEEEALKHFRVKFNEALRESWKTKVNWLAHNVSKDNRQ
T2 sequence (P27986 2-724 partner): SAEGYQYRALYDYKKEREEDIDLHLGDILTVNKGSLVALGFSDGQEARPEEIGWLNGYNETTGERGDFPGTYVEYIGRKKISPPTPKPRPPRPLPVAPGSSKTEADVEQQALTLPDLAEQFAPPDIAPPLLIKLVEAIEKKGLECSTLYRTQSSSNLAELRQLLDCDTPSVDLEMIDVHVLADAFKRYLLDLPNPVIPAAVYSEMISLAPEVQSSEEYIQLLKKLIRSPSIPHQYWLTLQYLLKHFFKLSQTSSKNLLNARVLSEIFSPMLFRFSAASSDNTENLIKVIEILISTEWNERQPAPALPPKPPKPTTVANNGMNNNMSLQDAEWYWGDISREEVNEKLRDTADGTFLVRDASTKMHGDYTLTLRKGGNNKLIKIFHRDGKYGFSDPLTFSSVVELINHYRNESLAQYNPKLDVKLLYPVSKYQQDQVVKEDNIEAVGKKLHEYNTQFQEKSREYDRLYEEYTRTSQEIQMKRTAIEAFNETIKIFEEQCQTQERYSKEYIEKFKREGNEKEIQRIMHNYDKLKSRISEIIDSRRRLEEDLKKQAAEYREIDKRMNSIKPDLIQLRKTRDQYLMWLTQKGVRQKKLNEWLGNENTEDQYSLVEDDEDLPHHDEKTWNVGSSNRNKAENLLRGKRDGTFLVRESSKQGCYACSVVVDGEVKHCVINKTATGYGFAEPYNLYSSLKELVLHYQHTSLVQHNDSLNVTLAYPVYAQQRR
Source text: PI3K-Glo ADP detection kinase assay on PI3Kδ

PI3Kα = molecular target: T3, PI3Kα (Homo sapiens, UniProt P42336); experiment: PI3K-Glo ADP detection kinase assay
T3 construct: gene PIK3CA; with Phosphatidylinositol 3-kinase regulatory subunit alpha
T3 sequence (P42336 whole entry): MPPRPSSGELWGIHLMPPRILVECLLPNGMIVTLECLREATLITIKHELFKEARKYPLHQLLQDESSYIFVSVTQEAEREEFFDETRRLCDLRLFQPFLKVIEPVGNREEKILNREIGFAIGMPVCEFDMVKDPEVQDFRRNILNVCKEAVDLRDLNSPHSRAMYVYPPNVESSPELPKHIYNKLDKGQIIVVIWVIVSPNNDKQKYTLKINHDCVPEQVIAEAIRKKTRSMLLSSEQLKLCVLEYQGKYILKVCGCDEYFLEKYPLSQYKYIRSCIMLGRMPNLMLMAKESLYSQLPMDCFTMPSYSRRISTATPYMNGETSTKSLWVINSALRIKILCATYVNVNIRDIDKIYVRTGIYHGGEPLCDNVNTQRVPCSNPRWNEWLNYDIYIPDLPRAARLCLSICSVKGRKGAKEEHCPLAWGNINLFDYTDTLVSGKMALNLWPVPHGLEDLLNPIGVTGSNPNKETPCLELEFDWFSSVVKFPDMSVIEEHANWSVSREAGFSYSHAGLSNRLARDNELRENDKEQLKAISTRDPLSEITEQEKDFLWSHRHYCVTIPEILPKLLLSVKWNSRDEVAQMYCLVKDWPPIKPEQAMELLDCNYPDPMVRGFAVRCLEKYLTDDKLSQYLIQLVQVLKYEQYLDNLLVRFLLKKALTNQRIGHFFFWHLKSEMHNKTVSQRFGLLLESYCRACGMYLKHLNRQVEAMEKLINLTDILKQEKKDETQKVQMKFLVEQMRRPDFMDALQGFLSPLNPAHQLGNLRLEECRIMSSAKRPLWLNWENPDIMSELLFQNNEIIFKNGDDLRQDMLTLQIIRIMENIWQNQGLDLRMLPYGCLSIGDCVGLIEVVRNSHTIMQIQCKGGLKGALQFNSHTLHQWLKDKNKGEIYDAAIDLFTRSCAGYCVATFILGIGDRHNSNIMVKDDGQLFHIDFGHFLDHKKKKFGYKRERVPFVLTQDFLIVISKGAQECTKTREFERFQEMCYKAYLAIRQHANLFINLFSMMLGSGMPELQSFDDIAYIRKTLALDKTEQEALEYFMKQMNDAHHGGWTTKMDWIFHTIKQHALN
T3 sequence (P27986 2-724 partner): as the sequence (P27986 2-724 partner) above
Source text: PI3K-Glo ADP detection kinase assay on PI3Kα

ERK = molecular target: T4, ERK; experiment: kinase activity profile; ERK assay not described
T4 construct: gene MAPK1; enzyme source and assay not described; ERK2 used only for docking
Source text: kinase activity profile; ERK assay not described on ERK

PI3Kβ = molecular target: T5, PI3Kβ (Homo sapiens, UniProt P42338); experiment: PI3K-Glo ADP detection kinase assay
T5 construct: gene PIK3CB; with Phosphatidylinositol 3-kinase regulatory subunit alpha
T5 sequence (P42338 whole entry): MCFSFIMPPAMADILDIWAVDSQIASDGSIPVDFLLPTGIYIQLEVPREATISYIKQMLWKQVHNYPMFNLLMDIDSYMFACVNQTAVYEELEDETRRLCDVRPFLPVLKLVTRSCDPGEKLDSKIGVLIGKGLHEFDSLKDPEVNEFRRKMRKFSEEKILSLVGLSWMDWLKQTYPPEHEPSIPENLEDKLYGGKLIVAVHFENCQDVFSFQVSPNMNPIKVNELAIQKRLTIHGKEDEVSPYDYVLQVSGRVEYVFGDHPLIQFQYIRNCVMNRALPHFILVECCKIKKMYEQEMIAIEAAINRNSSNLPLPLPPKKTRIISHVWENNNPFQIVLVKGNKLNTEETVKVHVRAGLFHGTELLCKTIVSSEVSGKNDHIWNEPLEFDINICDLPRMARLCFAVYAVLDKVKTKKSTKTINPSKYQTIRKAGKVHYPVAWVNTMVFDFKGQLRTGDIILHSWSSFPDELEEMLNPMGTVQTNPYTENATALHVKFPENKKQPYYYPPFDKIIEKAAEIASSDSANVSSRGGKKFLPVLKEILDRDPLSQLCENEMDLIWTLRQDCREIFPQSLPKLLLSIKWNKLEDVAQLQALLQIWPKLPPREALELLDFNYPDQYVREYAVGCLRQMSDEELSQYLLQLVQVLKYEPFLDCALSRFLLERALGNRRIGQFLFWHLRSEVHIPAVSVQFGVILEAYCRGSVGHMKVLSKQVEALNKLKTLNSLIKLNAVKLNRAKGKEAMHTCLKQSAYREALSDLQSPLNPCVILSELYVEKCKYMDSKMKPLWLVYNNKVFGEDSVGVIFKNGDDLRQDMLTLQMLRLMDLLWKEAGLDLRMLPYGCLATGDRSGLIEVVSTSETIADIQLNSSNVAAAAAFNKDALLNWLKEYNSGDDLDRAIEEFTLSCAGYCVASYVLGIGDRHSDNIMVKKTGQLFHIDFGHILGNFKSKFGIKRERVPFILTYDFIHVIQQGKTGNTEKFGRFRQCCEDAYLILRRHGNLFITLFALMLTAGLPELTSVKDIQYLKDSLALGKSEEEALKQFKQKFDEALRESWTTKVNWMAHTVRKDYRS
T5 sequence (P27986 2-724 partner): as the sequence (P27986 2-724 partner) above
Source text: PI3K-Glo ADP detection kinase assay on PI3Kβ

T1 sequence (P48736 whole entry): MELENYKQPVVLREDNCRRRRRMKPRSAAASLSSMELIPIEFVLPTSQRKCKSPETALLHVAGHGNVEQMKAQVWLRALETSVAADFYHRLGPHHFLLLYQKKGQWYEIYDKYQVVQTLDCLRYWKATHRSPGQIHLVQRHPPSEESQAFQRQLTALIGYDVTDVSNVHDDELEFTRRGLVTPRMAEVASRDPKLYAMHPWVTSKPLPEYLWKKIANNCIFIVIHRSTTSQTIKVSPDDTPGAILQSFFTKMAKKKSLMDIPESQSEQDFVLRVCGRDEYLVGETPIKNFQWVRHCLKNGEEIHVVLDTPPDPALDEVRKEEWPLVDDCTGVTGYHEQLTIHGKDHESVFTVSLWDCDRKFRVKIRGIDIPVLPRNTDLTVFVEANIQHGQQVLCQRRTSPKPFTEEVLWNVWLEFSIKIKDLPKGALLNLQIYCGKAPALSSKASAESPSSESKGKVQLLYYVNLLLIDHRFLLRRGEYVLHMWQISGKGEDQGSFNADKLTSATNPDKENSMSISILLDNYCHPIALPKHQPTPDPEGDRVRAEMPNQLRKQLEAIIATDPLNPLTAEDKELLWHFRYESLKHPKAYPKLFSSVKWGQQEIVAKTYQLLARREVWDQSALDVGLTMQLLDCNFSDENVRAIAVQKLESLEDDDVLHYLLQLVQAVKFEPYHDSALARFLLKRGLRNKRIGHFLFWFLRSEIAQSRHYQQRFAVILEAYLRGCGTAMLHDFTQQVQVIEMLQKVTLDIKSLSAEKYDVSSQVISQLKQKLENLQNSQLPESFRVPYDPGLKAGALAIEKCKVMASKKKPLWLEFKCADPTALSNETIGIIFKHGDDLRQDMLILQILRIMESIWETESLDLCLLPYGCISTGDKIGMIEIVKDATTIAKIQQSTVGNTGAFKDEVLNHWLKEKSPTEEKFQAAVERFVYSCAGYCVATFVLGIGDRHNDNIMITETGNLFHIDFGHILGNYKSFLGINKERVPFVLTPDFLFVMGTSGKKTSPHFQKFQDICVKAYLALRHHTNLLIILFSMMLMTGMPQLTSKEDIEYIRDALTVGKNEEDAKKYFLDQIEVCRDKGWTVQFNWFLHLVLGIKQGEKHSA

IC50 (PI3Kγ): > 10 µM
IC50 (PI3Kδ): 4.67 µM
IC50 (PI3Kα): 6.71 µM
IC50 (ERK): 5.67 µM
IC50 (PI3Kβ): > 10 µM
SMILES: COc1ncc(-c2ccc(NC(=O)/C=C/c3cccnc3)c(-n3ccnc3)c2)cc1NS(C)(=O)=O [CK-3]
